Like-named read-outs stand apart in the source and are kept apart here.
Assays:
[1] = Metabolic stability in human liver microsomes; format: in vitro ADME
[2] = test system: panel of 49 patient-derived HIV-1 reporter viruses with PI resistance-associated substitutions; format: cell-based; details: for isolates with complete loss of activity: of 49 PI-resistant clinical isolates
[3] = Cytotoxicity in CD4+ T-lymphocytes; format: cell-based; details: human, uninfected (mock infected) primary CD4+ T lymphocytes
Procedure: (§1) Compound cytotoxicity assessment in MT-4 cells, primary CD4+ T lymphocytes, and MDMs was carried out using a protocol identical to the antiviral assay except uninfected cells were used and tested with higher concentration ranges of test compounds. Assessment of cytotoxicity in additional human cell lines (Gal-PC3, Gal-HepG2, HEp-2, Huh-7, MRC-5, HepG2-NTCP, Huh7-Lunet HCV 1b and 2a replicons, NHBE, A549-hACE2) and primary human PBMCs (resting and stimulated with PHA/IL-2) and hepatocytes have been described previously ([19]). For all cytotoxicity assays, the CC50 value for puromycin was determined as a positive internal control and to assess assay sensitivity in each cell type. The effect of tested compounds on cell viability was measured using a CellTiter-Glo readout, performed according to the manufacturer’s recommendations.

[4] = Cytotoxicity in monocyte-derived macrophages; format: cell-based; details: human, uninfected (mock infected) monocyte-derived macrophages
Procedure: as §1

[5] = test system: HIV-1LAI wild type and site-directed PR mutants; assay: microbe, parasite or virus in culture; format: cell-based
MT-4 T cell line = assay: Cytotoxicity in uninfected MT-4 cells; format: cell-based, human; details: mock infected
Procedure: as §1

[6] = Cytotoxicity in uninfected MT-4 cells; format: cell-based, human; details: human, uninfected (mock infected) MT-4 T cells, MT-4 T cell line
Procedure: as §1

[7] = single oral dose co-administered with a pharmacological boosting agent; cited from earlier work
[8] = target: recombinant HIV-1 protease (Human immunodeficiency virus type 1 group M subtype B, UniProt P04585); assay: biochemical
Procedure: For the HIV protease assay, recombinant HIV-1 protease expression, purification, and enzymatic assay using a fluorogenic readout were performed as previously described with some minor changes ([22]). […] After a 20-minute pre-incubation, the enzymatic reaction was initiated by the addition of the fluorogenic substrate to a final concentration of 40 µM and a final volume of 100 µL. The reaction was measured over 20 minutes on a Tecan Infinite M1000 plate reader using excitation and detection wavelengths of 320 nm and 420 nm, respectively.

HIV-1 IIIb = assay: 5-day cytoprotection antiviral assay in MT-4 cells; format: cell-based
HIV-1 BaL [9] = assay: p24 production antiviral assay in monocyte-derived macrophages; format: cell-based
From the text: (§2) Antiviral assays performed in HIV-1BaL infected CD4 +T-lymphocytes and monocyte-derived macrophages (MDMs) have been described previously ([18]). Cell-free supernatants derived from the CD4 +T cell and macrophage cultures were harvested 7- and 12-days post-infection, respectively, and the amount of HIV present was quantified by p24 antigen enzyme-linked immunosorbent assay (ELISA, Perkin Elmer, Waltham, MA) performed according to the manufacturer’s protocol.

HIV-1 BaL [10] = assay: p24 production antiviral assay in CD4+ T-lymphocytes; format: cell-based
From the text: as §2

HIV-1IIIb = assay: Two-drug in vitro combination assay in MT-2 cells (MacSynergy II); format: cell-based; details: for Combination effect: pairwise combination with GS-9770; for Antagonism volume / Synergy volume: pairwise combination with GS-9770, 99% confidence, MT-2/HIV-1IIIb
Procedure: Anti-HIV-1 assays evaluating the in vitro antiviral effect of two-drug combinations were performed in MT-2 cells as previously described ([26]). Data were normalized to positive and negative controls in each plate and expressed as a percentage of protection from CPE-dependent cell death and analyzed with the MacSynergy II software. Combination data were analyzed at the 99% confidence level, with synergy/antagonism volumes defined as follows: high synergy (>100 µM^2%), moderate synergy (50 to <100 uM^2%), additivity (>−50 to <50 µM^2%), and antagonism (<−50 µM^2%).

two HIV-2 isolates = assay: Antiviral assay in PBMCs with HIV-2 clinical isolates (RT endpoint); format: cell-based; details: Human immunodeficiency virus 2, PBMC, 168 h, 7-day, RT activity
Procedure: (§3) Antiviral assays using fresh human PBMCs independently infected with a panel of clinical HIV-1 and HIV-2 isolates were performed by Southern Research as a contracted research study and assessed 7 days post-infection using reverse transcriptase (RT) endpoint assay. Antiviral assays using HIV-1 reporter viruses containing patient-derived sequences encoding all of PR and a portion of RT (amino acids 1–313) and conferring resistance to FDA-approved HIV PIs were performed by Monogram Biosciences Inc. (South San Francisco, CA) using their previously described Phenosense assay ([25]).

[11] = test system: 20 HIV-1 clinical isolates; assay: Antiviral assay in PBMCs with HIV-1 clinical isolates (RT endpoint); format: cell-based; details: Human immunodeficiency virus 1, PBMC
Procedure: as §3

[12] = test system: HIV-1 mutants resistant to NRTIs, NNRTIs, INSTIs
Cytotoxicity in Gal-PC3 = format: cell-based; details: human, Gal-PC3 cells
Procedure: as §1

Cytotoxicity in HEp-2 = format: cell-based; details: human, HEp-2 cells
Procedure: as §1

[13] = Cytotoxicity across human cell types (summary ranges); format: cell-based; details: human, human cell lines and primary cells (all cell types tested); across all of the cell types tested; read-out: mean CC50 range
Procedure: as §1

Cytotoxicity in MRC-5 = format: cell-based; details: human, MRC-5 cells
Procedure: as §1

[14] = Cytotoxicity in primary human hepatocytes; format: cell-based
Procedure: as §1

Cytotoxicity in Huh-7 = format: cell-based; details: human, Huh-7 cells
Procedure: as §1

[15] = Cytotoxicity in stimulated PBMCs; format: cell-based; details: human
Procedure: as §1

[16] = Cytotoxicity in Gal-HepG2; format: cell-based; details: human, Gal-HepG2 cells
Procedure: as §1

[17] = Cytotoxicity in unstimulated PBMCs; format: cell-based; details: human, unstimulated (resting) PBMCs
Procedure: as §1

[18] = Human immunodeficiency virus 1, PR L24I M46L A77I V82A
[19] = Human immunodeficiency virus 1, PR L24I M46L I64V A77I V82A
[20] = Human immunodeficiency virus 1, PR M46L A77I V82A
[21] = Human immunodeficiency virus 1, PR V82A
[22] = Human immunodeficiency virus 1, Wild type (WT) HIV-1LAI

For `COC(=O)N[C@H](C(=O)N[C@@H](Cc1ccccc1)[C@@H](O)CN(Cc1ccc(-c2ccccn2)cc1)NC(=O)[C@@H](NC(=O)OC)C(C)(C)C)C(C)(C)C` [ATV, atazanavir], the “Eh% (percent predicted hepatic extraction)” value [1] was 63%, the “Predicted CL (predicted human clearance)” value [1] was 13 mL/min/kg and the half-life ([1]; read-out: T½ in the presence of human liver microsomes) was 24 min. For the same compound, the “data points with fold change in EC50 above limit” value [2] was “five”, the “mean fold change (FC) in EC50 vs wild-type HIV-1 (geometric mean)” value ([2]; 49 PI-resistant reporter viruses) was 9.1 fold and the “isolates with complete loss of activity” value [2] was 3. The “isolates with greater than 10-fold loss in susceptibility” value ([2]; of 49 isolates, cutoff 10-fold) was 16, the CC50 [3] was over 50000 nM and the CC50 [4] was over 50000 nM. It also gave an EC50 [5, 18] of 4.2 ± 0.8 nM, an EC50 [5, 19] of 11.7 ± 1.4 nM and an EC50 [5, 20] of 6.9 ± 1.8 nM. The EC50 [5, 21] was 7.6 ± 3.3 nM, the EC50 [5, 22] was 5.7 ± 3.6 nM and the “fold-change relative to WT” value ([5]; PR L24I M46L A77I V82A) was 0.7 fold. The “fold-change relative to WT” value ([5]; PR L24I M46L I64V A77I V82A) was 2.1 fold, the “fold-change relative to WT” value ([5]; PR M46L A77I V82A) was 1.2 fold and the “fold-change relative to WT” value ([5]; PR V82A) was 1.3 fold. For the same compound, the “fold-change relative to WT” value ([5]; Wild type (WT) HIV-1LAI) was 1.0 fold, the CC50 (MT-4 T cell line) was 51000 ± 8000 nM and the CC50 [6] was over 50000 nM. The “plasma half-life in humans” value [7] was 516 min, the Ki [8] was 0.023 nM and the EC50 (HIV-1 IIIb; Human immunodeficiency virus 1, IIIB, T-cell, 120 h) was 11 ± 3 nM. For the same compound, the “SI (CC50/EC50 ratio)” value (HIV-1 IIIb; MT-4 T cell line) was 4,700, the “95% effective concentration (EC95)” value (HIV-1 IIIb; calculated from MT-4/HIV-1IIIb EC50 and Hill coefficient) was 19.5 nM and the “SI (CC50/EC50 ratio)” value (HIV-1 BaL [9]) was >3,100. For the same compound, the EC50 (HIV-1 BaL [9]; Human immunodeficiency virus 1, Macrophage, HIV-1BaL infected) was 16 ± 12 nM, the “SI (CC50/EC50 ratio)” value (HIV-1 BaL [10]) was >12,000 and the EC50 (HIV-1 BaL [10]; Human immunodeficiency virus 1, T-lymphocyte, HIV-1BaL infected) was 4.3 ± 1.9 nM.

For `O=C(NCc1c(F)cc(F)cc1F)c1cn2c(c(O)c1=O)C(=O)N1[C@H]3CC[C@H](C3)O[C@@H]1C2` [BIC, bictegravir], the Combination effect (HIV-1IIIb) was “Highly synergistic”, the Antagonism volume (HIV-1IIIb) was −11 ± 13 µM^2.% and the Synergy volume (HIV-1IIIb) was 156 ± 49 µM^2.%.

With `CC(C)CN(C[C@@H](O)[C@H](Cc1ccccc1)NC(=O)O[C@H]1CO[C@H]2OCC[C@H]21)S(=O)(=O)c1ccc(N)cc1` [DRV, darunavir] the “isolates with complete loss of activity” value [2] was 5, the EC50 (two HIV-2 isolates) was 8.5 nM and the EC50 ([11]; 168 h, read-out: mean EC50) was 3.2 nM. It also gave an EC50 ([11]; read-out: EC50 range) of 0.8 to 9.2 nM.

In the case of `O=C1Nc2ccc(Cl)cc2[C@@](C#CC2CC2)(C(F)(F)F)O1` [EFV, efavirenz], the EC50 [5, 18] is reported as 1.1 ± 0.1 nM, the EC50 [5, 19] is reported as 1 ± 0.2 nM and the EC50 [5, 20] is reported as 1 ± 0.2 nM. For the same compound, the EC50 [5, 21] was 1.2 ± 0.6 nM, the EC50 [5, 22] was 1.3 ± 0.7 nM and the “fold-change relative to WT” value ([5]; PR L24I M46L A77I V82A) was 0.9 fold. For the same compound, the “fold-change relative to WT” value ([5]; PR L24I M46L I64V A77I V82A) was 0.8 fold, the “fold-change relative to WT” value ([5]; PR M46L A77I V82A) was 0.8 fold and the “fold-change relative to WT” value ([5]; PR V82A) was 1.0 fold. The “fold-change relative to WT” value ([5]; Wild type (WT) HIV-1LAI) was 1.0 fold, the “Fold resistance (mutant/wildtype EC50 ratio)” value ([12]; K103N) was 14 ± 12 and the “Fold resistance (mutant/wildtype EC50 ratio)” value ([12]; K103N+Y181C) was 11 ± 5. For the same compound, the “Fold resistance (mutant/wildtype EC50 ratio)” value ([12]; L100I+K103N) was over 30, the “Fold resistance (mutant/wildtype EC50 ratio)” value ([12]; Y181C) was 3.5 ± 0.6 and the “Fold resistance (mutant/wildtype EC50 ratio)” value ([12]; Y188L) was over 30.

For `COc1cc2c(cc1Cc1cccc(Cl)c1F)c(=O)c(C(=O)O)cn2[C@H](CO)C(C)C` [EVG, elvitegravir], the “Fold resistance (mutant/wildtype EC50 ratio)” value ([12]; E92Q+N155H) was over 50, the “Fold resistance (mutant/wildtype EC50 ratio)” value ([12]; E138K+Q148K) was over 50 and the “Fold resistance (mutant/wildtype EC50 ratio)” value ([12]; G140S+Q148R) was over 50. The “Fold resistance (mutant/wildtype EC50 ratio)” value ([12]; Q148+N155H) was over 50.

With `Nc1nc(=O)n([C@@H]2CS[C@H](CO)O2)cc1F` [FTC, emtricitabine] the Combination effect (HIV-1IIIb) was “Highly synergistic”, the Antagonism volume (HIV-1IIIb) was −8 ± 11 µM^2.% and the Synergy volume (HIV-1IIIb) was 139 ± 24 µM^2.%. For the same compound, the “Fold resistance (mutant/wildtype EC50 ratio)” value ([12]; 6TAMs) was 23 ± 21, the “Fold resistance (mutant/wildtype EC50 ratio)” value ([12]; K65R) was 12 ± 6 and the “Fold resistance (mutant/wildtype EC50 ratio)” value ([12]; M184V) was over 141.

With `CC(C)(C#Cc1ccc(-c2ccc(Cl)c3c(NS(C)(=O)=O)nn(CC(F)(F)F)c23)c([C@H](Cc2cc(F)cc(F)c2)NC(=O)Cn2nc(C(F)(F)F)c3c2C(F)(F)[C@@H]2C[C@H]32)n1)S(C)(=O)=O` [LEN, lenacapavir] the Combination effect (HIV-1IIIb) was “Highly synergistic”, the Antagonism volume (HIV-1IIIb) was −0.6 ± 1.7 µM^2.% and the Synergy volume (HIV-1IIIb) was 201 ± 111 µM^2.%.

For `COc1ccc(C[C@H](N)C(=O)N[C@H]2[C@@H](O)[C@H](n3cnc4c(N(C)C)ncnc43)O[C@@H]2CO)cc1` [Puromycin, puromycin], the CC50 (Cytotoxicity in Gal-PC3) was 450 ± 170 nM, the CC50 (Cytotoxicity in HEp-2) was 600 ± 300 nM and the CC50 [13] was 310 to 1600 nM. For the same compound, the CC50 (Cytotoxicity in MRC-5) was 310 ± 200 nM, the CC50 [14] was 1600 ± 200 nM and the CC50 (Cytotoxicity in Huh-7) was 800 ± 700 nM. It also gave a CC50 [15] of 800 ± 150 nM, a CC50 [16] of 1400 ± 800 nM and a CC50 [17] of 540 ± 210 nM.

For `Cc1cc(/C=C/C#N)cc(C)c1Nc1ccnc(Nc2ccc(C#N)cc2)n1` [RPV, rilpivirine], the Combination effect (HIV-1IIIb) was “Highly synergistic”, the Antagonism volume (HIV-1IIIb) was 0 ± 0 µM^2.% and the Synergy volume (HIV-1IIIb) was 184 ± 65 µM^2.%.

For `CC(C)OC(=O)[C@H](C)N[P@](=O)(CO[C@H](C)Cn1cnc2c(N)ncnc21)Oc1ccccc1` [TAF, tenofovir alafenamide], the Combination effect (HIV-1IIIb) was “Highly synergistic”, the Antagonism volume (HIV-1IIIb) was −4 ± 7 µM^2.% and the Synergy volume (HIV-1IIIb) was 166 ± 51 µM^2.%.
